# Data reported in PMC12637173, “Investigation on LASSBio‐1971 and LASSBio‐1974 Cellular Cytotoxic Mechanism and Their Comparative DMPK Profile” (Archiv Der Pharmazie, 2025).
# Legend:
# PAMPA‐GIT = assay type: in vitro ADME; settings: PAMPA-GIT; for Fa exp. / Papp: standard drugs used as control (n = 2); for Classification: standard drugs used as control; for Papp: read-out: Pe experimental
# Procedure: (§1) The lipid mixture that impregnates the filter has a different constitution for the permeability tests for the BBB (brain lipid from pig extract in n‐dodecane) and the GIT (L‐α soy phosphatidylcholine in n‐dodecane). The optical density values obtained in the reading at each selected wavelength, for each of the compounds, were analyzed in comparison with the values of several controls within a calibration curve (≥ 7 drugs). In the case of the BBB, these values were used to elaborate an equation and determine the permeability coefficient (Pe), while GIT used absorbed fraction (Fa%).
# [1] = PAMPA-GIT, standard drugs; literature value, ref not given; cited from earlier work
# PAMPA‐BBB = assay type: in vitro ADME; settings: PAMPA-BBB; for Classification: standard drugs used as control
# Procedure: as §1
Compound,Fa exp. (PAMPA‐GIT),Fa lit. [1],Classification (PAMPA‐BBB),Classification (PAMPA‐GIT),Papp (PAMPA‐GIT),Pe literature [1],"Papp (PAMPA‐BBB; standard drugs used as control (n = 2), read-out: Pe experimental)"
Nc1nc2c(ncn2COCCO)c(=O)[nH]1 [Acyclovir],1.70%,,,,,,
CC(C)NCC(O)COc1ccc(CC(N)=O)cc1 (stereo not shown) [Atenolol],2.26%,5.2%,,,,,
"Cn1c(=O)c2c(ncn2C)n(C)c1=O [Caffeine, reference compound]",,,CNS -,,,,
CO/N=C(\C(=O)N[C@@H]1C(=O)N2C(C(=O)O)=C(CSc3nc(=O)c(=O)[nH]n3C)CS[C@H]12)c1csc(N)n1 [Ceftriaxone],1.37%,1%,,Low (low permeability (0%–29%)),0.67 ×10⁻⁶ cm/s,0.10 10^-6 cm s^-1,
O=C(O)Cc1ccccc1Nc1c(Cl)cccc1Cl [Diclofenac],99.31%,100%,,High (high intestinal permeability (70%–100%)),13.1 ×10⁻⁶ cm/s,12.50 10^-6 cm s^-1,
"CCn1cc(C(=O)O)c(=O)c2cc(F)c(N3CCNCC3)nc21 [Enoxacin, reference compound]",,,CNS +,,,,0.56 ×10⁻⁶ cm/s
